{"source": "ChEMBL document CHEMBL4354815", "about": "“Fibrinolysis Inhibitors: Potential Drugs for the Treatment and Prevention of Bleeding” (J Med Chem, 2020)", "key": {"[1]": {"assay": "Half life in rat, iv", "format": "ADME", "conditions": "in vivo"}, "Blood": {"test_system": "Blood", "assay": "Anti-fibrinolytic activity in human whole blood assessed as reduction in clot lysis incubated for 5 mins in presence of tissue-type plasminogen activator by rotational thromboelastometry", "format": "functional, tissue-based"}, "[2]": {"assay": "Plasma concentration in human at 0.219 mg/kg/h by liquid chromatography-tandem mass spectrometry", "format": "ADME, organism-based", "conditions": "in vivo"}, "[3]": {"assay": "Half life in dog, iv", "format": "ADME, Canis lupus familiaris", "conditions": "in vivo"}, "[4]": {"biological_target": "T1, Urokinase-type plasminogen activator (Homo sapiens, UniProt P00749)", "assay": "Inhibition of human urokinase-type plasminogen activator using S-2444 as substrate"}, "Plasminogen [5]": {"biological_target": "T2, Plasminogen (Homo sapiens, UniProt P00747)", "T2 sequence (P00747 97-580 limits assumed)": "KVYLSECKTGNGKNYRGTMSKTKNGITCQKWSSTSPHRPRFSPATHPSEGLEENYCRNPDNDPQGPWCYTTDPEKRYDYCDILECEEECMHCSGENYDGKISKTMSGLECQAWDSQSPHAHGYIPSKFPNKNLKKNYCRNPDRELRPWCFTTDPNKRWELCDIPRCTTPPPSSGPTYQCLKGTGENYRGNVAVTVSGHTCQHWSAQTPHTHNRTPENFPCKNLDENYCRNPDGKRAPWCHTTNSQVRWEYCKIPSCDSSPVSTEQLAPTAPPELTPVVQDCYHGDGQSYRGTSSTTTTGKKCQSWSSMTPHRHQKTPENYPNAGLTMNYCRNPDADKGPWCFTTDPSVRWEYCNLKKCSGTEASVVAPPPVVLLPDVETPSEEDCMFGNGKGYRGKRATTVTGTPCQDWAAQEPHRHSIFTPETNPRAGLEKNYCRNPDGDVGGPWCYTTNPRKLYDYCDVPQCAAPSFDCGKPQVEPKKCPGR", "T2 sequence (P00747 581-810 limits assumed)": "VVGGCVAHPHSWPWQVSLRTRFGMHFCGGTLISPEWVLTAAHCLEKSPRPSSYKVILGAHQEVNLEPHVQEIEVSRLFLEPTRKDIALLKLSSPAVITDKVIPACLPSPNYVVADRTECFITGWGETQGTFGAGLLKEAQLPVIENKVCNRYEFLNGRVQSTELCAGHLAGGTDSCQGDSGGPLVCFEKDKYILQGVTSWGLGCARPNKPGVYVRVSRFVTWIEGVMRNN", "assay": "Inhibition of human plasmin"}, "Plasminogen [6]": {"biological_target": "T2, Plasminogen", "assay": "Inhibition of plasmin (unknown origin) assessed as reduction in amidolytic activity using S-2251 as the substrate after 4 mins"}, "Plasminogen [7]": {"biological_target": "T2, Plasminogen", "assay": "Inhibition of human plasmin assessed as reduction in fibrinolysis"}, "Prothrombin [8]": {"biological_target": "T3, Prothrombin (Homo sapiens, UniProt P00734)", "assay": "Inhibition of thrombin (unknown origin) assessed as reduction in hydrolysis activity preincubated for 10 mins followed by spectrozyme TH"}, "Coagulation factor X [9]": {"biological_target": "T4, Coagulation factor X (Homo sapiens, UniProt P00742)", "T4 sequence (P00742 41-179 limits assumed)": "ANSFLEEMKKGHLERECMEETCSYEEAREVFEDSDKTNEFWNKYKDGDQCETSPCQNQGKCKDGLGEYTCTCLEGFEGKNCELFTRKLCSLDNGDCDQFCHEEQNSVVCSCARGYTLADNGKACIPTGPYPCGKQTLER", "T4 sequence (P00742 235-488 limits assumed)": "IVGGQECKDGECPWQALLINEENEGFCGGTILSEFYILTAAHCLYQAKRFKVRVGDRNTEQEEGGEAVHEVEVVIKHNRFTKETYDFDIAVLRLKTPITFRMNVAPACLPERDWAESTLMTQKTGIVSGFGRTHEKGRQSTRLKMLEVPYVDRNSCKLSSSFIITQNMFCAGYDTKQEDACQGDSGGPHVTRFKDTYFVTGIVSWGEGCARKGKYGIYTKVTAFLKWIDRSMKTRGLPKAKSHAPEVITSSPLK", "assay": "Inhibition of human factor 10a (unknown origin) assessed as reduction in hydrolysis activity preincubated for 10 mins followed by spectrozyme FXa"}, "Plasminogen [10]": {"biological_target": "T2, Plasminogen", "assay": "Inhibition of human plasmin using S-2251 as substrate after 30 mins by spectrophotometric method"}, "Plasminogen [11]": {"biological_target": "T2, Plasminogen", "assay": "Inhibition of human plasmin assessed as reduction in proteolysis activity in presence of fibrinogen after 90 mins by SDS-PAGE analysis"}, "[12]": {"assay": "Inhibition of human urinary kallikrein using H-D-Val-Leu-Arg-pNA as substrate"}, "Coagulation factor XII": {"biological_target": "T5, Coagulation factor XII (Homo sapiens, UniProt P00748)", "T5 sequence (P00748 whole entry)": "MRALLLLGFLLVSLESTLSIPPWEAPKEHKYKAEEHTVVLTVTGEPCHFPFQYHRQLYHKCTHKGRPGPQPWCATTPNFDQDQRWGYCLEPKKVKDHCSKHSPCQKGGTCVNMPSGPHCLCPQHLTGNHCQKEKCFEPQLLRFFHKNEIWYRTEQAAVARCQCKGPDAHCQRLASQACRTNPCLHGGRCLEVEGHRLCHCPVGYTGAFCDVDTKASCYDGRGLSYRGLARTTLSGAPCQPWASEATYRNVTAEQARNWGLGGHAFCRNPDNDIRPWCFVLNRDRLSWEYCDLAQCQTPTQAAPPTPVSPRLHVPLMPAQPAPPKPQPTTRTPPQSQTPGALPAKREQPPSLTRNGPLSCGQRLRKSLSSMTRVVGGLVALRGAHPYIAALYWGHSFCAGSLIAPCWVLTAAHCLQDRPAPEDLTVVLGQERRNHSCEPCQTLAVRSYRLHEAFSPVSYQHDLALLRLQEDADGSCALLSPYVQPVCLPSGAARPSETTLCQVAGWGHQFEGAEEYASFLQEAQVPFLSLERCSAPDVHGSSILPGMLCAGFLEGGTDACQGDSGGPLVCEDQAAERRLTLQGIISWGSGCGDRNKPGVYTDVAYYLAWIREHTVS", "assay": "Inhibition of human factor 12a using CHA-Gly-Arg- pNA as substrate"}, "Coagulation factor X [13]": {"biological_target": "T4, Coagulation factor X", "assay": "Inhibition of human factor 10a using MeOCO-d-Cha-Gly-Arg-pNA as substrate"}, "Coagulation factor XI": {"biological_target": "Coagulation factor XI (Homo sapiens, UniProt P03951)", "sequence (P03951 19-387 limits assumed)": "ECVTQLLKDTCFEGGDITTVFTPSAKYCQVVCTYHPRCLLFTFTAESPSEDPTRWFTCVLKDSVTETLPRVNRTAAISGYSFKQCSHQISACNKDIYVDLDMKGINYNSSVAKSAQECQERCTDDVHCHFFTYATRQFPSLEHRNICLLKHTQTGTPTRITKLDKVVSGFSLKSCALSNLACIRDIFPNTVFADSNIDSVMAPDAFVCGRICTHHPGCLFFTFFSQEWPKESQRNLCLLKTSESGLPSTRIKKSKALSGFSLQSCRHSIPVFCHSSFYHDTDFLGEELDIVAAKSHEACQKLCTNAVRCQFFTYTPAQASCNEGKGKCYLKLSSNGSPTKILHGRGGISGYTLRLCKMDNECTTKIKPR", "sequence (P03951 388-625 limits assumed)": "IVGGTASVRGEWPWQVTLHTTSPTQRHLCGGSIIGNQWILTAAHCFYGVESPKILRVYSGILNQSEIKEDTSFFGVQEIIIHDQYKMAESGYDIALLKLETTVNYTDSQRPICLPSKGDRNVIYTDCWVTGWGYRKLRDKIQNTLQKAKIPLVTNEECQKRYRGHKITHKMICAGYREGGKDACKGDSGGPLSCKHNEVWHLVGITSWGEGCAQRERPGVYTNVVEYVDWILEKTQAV", "assay": "Inhibition of human factor 11a using H-D-Lys(Cbo)-Pro-Arg-pNA as substrate"}, "[14]": {"biological_target": "T6, Complement C1s subcomponent (Homo sapiens, UniProt P09871)", "T6 sequence (P09871 whole entry)": "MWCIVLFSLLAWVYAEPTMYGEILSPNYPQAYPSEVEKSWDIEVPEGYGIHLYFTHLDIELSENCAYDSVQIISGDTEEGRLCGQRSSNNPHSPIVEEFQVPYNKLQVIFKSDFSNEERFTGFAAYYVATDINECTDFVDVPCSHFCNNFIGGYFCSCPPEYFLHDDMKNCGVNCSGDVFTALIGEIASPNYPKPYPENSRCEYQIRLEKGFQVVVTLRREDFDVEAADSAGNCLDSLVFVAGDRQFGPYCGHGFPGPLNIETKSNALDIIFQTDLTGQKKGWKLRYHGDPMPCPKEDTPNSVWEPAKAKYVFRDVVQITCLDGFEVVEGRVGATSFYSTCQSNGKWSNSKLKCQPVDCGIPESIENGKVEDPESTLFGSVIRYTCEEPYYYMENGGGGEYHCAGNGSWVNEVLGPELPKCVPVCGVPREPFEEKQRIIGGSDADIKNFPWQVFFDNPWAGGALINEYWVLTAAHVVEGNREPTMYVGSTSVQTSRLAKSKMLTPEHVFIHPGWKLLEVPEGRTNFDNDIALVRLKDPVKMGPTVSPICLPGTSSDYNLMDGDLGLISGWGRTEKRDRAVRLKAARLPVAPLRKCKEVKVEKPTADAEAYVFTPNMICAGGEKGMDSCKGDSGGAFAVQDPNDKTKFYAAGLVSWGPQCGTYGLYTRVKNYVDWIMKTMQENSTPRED", "assay": "Inhibition of human Complement C1s subcomponent using Val-Ser-Arg-pNA as substrate"}, "Prothrombin [15]": {"biological_target": "T3, Prothrombin", "assay": "Inhibition of human factor 2a using Mes-d-Cha-Gly-Arg-pNA as substrate"}, "[16]": {"biological_target": "T7, Complement C1r subcomponent (Homo sapiens, UniProt P00736)", "T7 sequence (P00736 whole entry)": "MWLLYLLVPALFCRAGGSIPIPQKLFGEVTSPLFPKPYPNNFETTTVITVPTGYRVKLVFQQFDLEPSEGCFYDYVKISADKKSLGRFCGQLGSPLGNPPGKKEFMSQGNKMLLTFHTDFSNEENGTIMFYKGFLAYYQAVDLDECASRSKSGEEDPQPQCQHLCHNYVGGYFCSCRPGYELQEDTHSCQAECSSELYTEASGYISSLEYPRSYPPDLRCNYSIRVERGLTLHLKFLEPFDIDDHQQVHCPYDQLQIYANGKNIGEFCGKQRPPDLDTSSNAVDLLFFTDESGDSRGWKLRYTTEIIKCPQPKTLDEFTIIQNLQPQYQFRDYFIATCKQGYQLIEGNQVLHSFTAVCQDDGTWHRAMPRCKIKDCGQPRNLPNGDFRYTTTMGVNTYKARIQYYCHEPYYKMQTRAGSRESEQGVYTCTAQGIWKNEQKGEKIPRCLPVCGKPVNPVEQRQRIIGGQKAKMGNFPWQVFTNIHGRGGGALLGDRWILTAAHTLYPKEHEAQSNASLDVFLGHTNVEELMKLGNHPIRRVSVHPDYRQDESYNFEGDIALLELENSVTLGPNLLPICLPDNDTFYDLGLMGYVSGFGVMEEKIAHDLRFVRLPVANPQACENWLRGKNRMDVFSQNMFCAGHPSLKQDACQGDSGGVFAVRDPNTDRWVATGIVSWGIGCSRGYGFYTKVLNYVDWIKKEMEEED", "assay": "Inhibition of human Complement C1r subcomponent using Val-Ser-Arg-pNA as substrate"}, "[17]": {"biological_target": "Vitamin K-dependent protein C (Homo sapiens, UniProt P04070)", "sequence (P04070 43-197 limits assumed)": "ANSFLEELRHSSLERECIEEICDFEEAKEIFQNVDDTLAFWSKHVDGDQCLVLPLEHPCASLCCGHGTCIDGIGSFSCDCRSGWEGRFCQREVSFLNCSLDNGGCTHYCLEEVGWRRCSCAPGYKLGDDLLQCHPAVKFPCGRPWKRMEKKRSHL", "sequence (P04070 212-461 limits assumed)": "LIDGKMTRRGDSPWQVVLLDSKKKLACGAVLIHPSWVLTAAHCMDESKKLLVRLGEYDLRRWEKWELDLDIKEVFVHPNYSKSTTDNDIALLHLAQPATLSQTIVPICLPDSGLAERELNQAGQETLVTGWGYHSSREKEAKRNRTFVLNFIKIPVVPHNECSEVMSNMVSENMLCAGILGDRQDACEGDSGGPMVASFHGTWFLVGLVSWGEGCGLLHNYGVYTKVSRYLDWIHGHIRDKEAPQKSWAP", "assay": "Inhibition of human activated protein […] C using H-D-Lys(Cbo)-Pro-Arg-pNA as substrate"}, "[18]": {"biological_target": "T8, Tissue-type plasminogen activator (Homo sapiens, UniProt P00750)", "T8 sequence (P00750 whole entry)": "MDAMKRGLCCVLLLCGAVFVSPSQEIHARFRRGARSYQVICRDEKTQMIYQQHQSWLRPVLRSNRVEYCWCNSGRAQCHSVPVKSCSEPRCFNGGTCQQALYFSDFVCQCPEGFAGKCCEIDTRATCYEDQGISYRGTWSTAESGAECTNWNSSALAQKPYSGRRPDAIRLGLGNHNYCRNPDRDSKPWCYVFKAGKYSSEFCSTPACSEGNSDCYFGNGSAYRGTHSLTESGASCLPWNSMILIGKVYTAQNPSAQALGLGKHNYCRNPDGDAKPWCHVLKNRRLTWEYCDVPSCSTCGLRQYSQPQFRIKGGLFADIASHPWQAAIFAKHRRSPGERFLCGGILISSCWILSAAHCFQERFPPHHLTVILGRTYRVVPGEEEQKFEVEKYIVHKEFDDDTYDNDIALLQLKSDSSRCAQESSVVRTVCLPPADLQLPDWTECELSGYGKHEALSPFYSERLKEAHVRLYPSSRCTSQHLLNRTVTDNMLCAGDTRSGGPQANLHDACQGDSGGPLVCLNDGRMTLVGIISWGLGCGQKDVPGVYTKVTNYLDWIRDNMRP", "assay": "Inhibition of human tissue-type plasminogen activator using Mes-d-Cha- Gly-Arg-pNA as substrate"}, "Plasminogen [19]": {"biological_target": "T2, Plasminogen", "assay": "Inhibition of human plasmin assessed as km using S-2251 as the substrate"}, "Plasminogen [20]": {"biological_target": "T2, Plasminogen", "assay": "Competitive inhibition of human plasmin assessed as reduction in hydrolytic activity using S-2251 as substrate by spectrophotometric method"}, "[21]": {"biological_target": "T8, Tissue-type plasminogen activator", "assay": "Inhibition of tissue-type plasminogen activator (unknown origin)"}, "Plasminogen [22]": {"biological_target": "T2, Plasminogen", "assay": "Inhibition of plasmin (unknown origin)"}, "[23]": {"biological_target": "T1, Urokinase-type plasminogen activator", "assay": "Inhibition of urokinase-type plasminogen activator (unknown origin)"}, "Plasminogen [24]": {"biological_target": "T2, Plasminogen", "assay": "Inhibition of plasmin (unknown origin) using D-Val-Leu-Lys-p-nitroanilide as substrate"}}, "note": "Where a SMILES comes first, the peptide text is derived from it. [ ]: non-standard residue; d: D form. Met(O2) = CS(=O)(=O)CC[C@H](N)C(=O)O"}
{"smiles": "N=C(N)c1ccc(CNC(=O)[C@H](Cc2cccc(CN)c2)NC(=O)[C@@H](CCCc2ccccc2)NS(=O)(=O)Cc2cccc(C(=O)O)c2)cc1", "values": [{"measurement": "half-life", "setting": "[1]", "value": 20, "unit": "min"}, {"measurement": "IC50", "setting": "Blood", "value": 0.15, "unit": "µM"}, {"measurement": "concentration", "setting": "[2]", "value": 900, "unit": "nM"}, {"measurement": "half-life", "setting": "[3]", "value": 20, "unit": "min"}]}
{"smiles": "NC[C@H]1CC[C@H](C(=O)O)CC1", "note": "[TRANEXAMIC ACID]", "values": [{"measurement": "Ki", "setting": "[4]", "value": 2000, "unit": "µM"}, {"measurement": "IC50", "setting": "Blood", "value": 2.75, "unit": "µM"}]}
{"smiles": "N=C(N)c1cccc(C[C@H](NS(=O)(=O)c2ccc3ccccc3c2)C(=O)N2CCCC(C(=O)NCc3cccs3)C2)c1", "note": "(stereo partly drawn)", "values": [{"measurement": "Ki", "setting": "Plasminogen [5]", "value": 0.14, "unit": "µM"}]}
{"smiles": "NCCCC[C@H](NC(=O)[C@H]1CC[C@H](CN)CC1)C(=O)Nc1ccc(C(=O)c2ccccc2)cc1", "values": [{"measurement": "IC50", "setting": "Plasminogen [6]", "value": 15, "unit": "µM"}, {"measurement": "IC50", "setting": "Plasminogen [7]", "value": 6.1, "unit": "µM"}]}
{"smiles": "O=c1c(OS(=O)(=O)O)c(-c2ccc(OS(=O)(=O)O)c(OS(=O)(=O)O)c2)oc2cc(OS(=O)(=O)O)cc(OCc3cn(CCCCCCCCn4c(-c5ccc(OS(=O)(=O)O)cc5)nc5ccccc5c4=O)nn3)c12", "values": [{"measurement": "IC50", "setting": "Prothrombin [8]", "value": "> 500", "unit": "µM"}, {"measurement": "IC50", "setting": "Coagulation factor X [9]", "value": "> 250", "unit": "µM"}]}
{"smiles": "N=C(N)Nc1ccc(C(=O)Oc2ccc(S(N)(=O)=O)cc2)cc1", "values": [{"measurement": "Ki", "setting": "Plasminogen [10]", "value": 0.31, "unit": "µM"}]}
{"smiles": "CC(=O)N[C@@H](CCCCN)C(=O)N[C@@H](CCS(C)(=O)=O)C(=O)N[C@@H](Cc1ccc(O)cc1)C(=O)N[C@H](C=O)CCCNC(=N)N", "note": "(Ac-K[Met(O2)]YR-aldehyde)", "values": [{"measurement": "Ki", "setting": "Plasminogen [11]", "value": 0.0033, "unit": "µM"}]}
{"smiles": "N=C(N)c1ccc(CNC(=O)[C@H](CCC2CCNCC2)NC(=O)[C@@H](CCCc2ccccc2)NS(=O)(=O)Cc2ccccc2)cc1", "values": [{"measurement": "Ki", "setting": "[12]", "value": "> 0.13", "unit": "µM"}, {"measurement": "Ki", "setting": "Coagulation factor XII", "value": "> 0.13", "unit": "µM"}, {"measurement": "Ki", "setting": "Coagulation factor X [13]", "value": "> 0.13", "unit": "µM"}, {"measurement": "Ki", "setting": "Coagulation factor XI", "value": "> 0.13", "unit": "µM"}, {"measurement": "Ki", "setting": "[14]", "value": "> 0.13", "unit": "µM"}, {"measurement": "Ki", "setting": "Prothrombin [15]", "value": "> 0.13", "unit": "µM"}, {"measurement": "Ki", "setting": "[16]", "value": "> 0.13", "unit": "µM"}, {"measurement": "Ki", "setting": "[17]", "value": "> 0.13", "unit": "µM"}, {"measurement": "Ki", "setting": "[18]", "value": "> 0.13", "unit": "µM"}]}
{"smiles": "CC[C@@H](C)[C@@H](N)C(=O)N[C@@H](Cc1ccccc1)C(=O)N[C@@H](CCCCN)C(=O)Nc1ccc([N+](=O)[O-])cc1", "values": [{"measurement": "Km", "setting": "Plasminogen [19]", "value": 30, "unit": "µM"}]}
{"smiles": "CCOC(=O)c1ccc(OC(=O)CCCCCNC(=N)N)cc1", "note": "[GABEXATE]", "values": [{"measurement": "Ki", "setting": "Plasminogen [20]", "value": 1.9, "unit": "µM"}]}
{"smiles": "N=C(N)c1ccc(CNC(=O)[C@@H]2CCN2C(=O)[C@H](NCC(=O)O)C2CCCCC2)cc1", "values": [{"measurement": "Ki", "setting": "[21]", "value": 0.9, "unit": "µM"}, {"measurement": "Ki", "setting": "Plasminogen [22]", "value": 0.7, "unit": "µM"}, {"measurement": "Ki", "setting": "[23]", "value": 6.3, "unit": "µM"}]}
{"smiles": "O=C(CCC1CCCC(NC(=O)[C@H](Cc2c[nH]c3ccccc23)NC(=O)OCc2ccccc2)C1=O)N[C@@H](Cc1c[nH]c2ccccc12)C(=O)O", "note": "(mixture of isomers)", "values": [{"measurement": "Ki", "setting": "Plasminogen [24]", "value": "5 to 10", "unit": "µM"}]}
